Results published in patent publication US20140349944A1, “CHAPERONE-BASED INTEGRIN INHIBITORS FOR THE TREATMENT OF CANCER AND INFLAMMATORY DISEASES” (priority 2013, published 2014).

Tested on: gp96 and αL-HA in RAW264.7 cells
Test: Tunicamycin treatment of RAW264.7 cells, IP and immunoblot
Format: cell-based
Conditions: 5 μg/ml Tunicamycin

Tunicamycin
binding of immature ER αL-HA to gp96 (12 hours (FIG. 1E)): reduction in binding to gp96
dimerization of matured cell surface αL-HA with β2-myc (12 hours (FIG. 1E)): no change
gp96 expression (12 hours, via unfolded protein response): upregulation
